# In publication PMC8765048 (JCI Insight, 2022):
# Read-outs that look alike come from different tables or passages of the source.
# Legend:
# A549 cells = assay: Phospholipidosis imaging (NBD-PE fluorescence); conditions: 24 h, sangivamycin up to 5 μM, melperone 10 μM, amiodarone positive control
# SARS-CoV-2 WA1 [1] = assay: microbe, parasite or virus in culture; type: cell-based; conditions: for IC50: read-out: IC50
# SARS-CoV-2 [2] = assay: Combinatorial sangivamycin/remdesivir efficacy testing, Caco-2 cells; type: cell-based; conditions: Severe acute respiratory syndrome coronavirus 2, Caco-2; read-out: IC50 (nM), S:R by [Remdesivir]
# [3] = test system: SARS-CoV-2 B.1.427 (Epsilon); assay: microbe, parasite or virus in culture; type: cell-based; conditions: Severe acute respiratory syndrome coronavirus 2, Vero C1008, 24 h
# [4] = mice; cited from earlier work
# [5] = test system: SARS-CoV-2 B.1.429 (Epsilon); assay: microbe, parasite or virus in culture; type: cell-based; conditions: Severe acute respiratory syndrome coronavirus 2, Calu-3, 24 h
# SARS-CoV-2 P.2 (Zeta) [6] = assay: microbe, parasite or virus in culture; type: cell-based; conditions: Severe acute respiratory syndrome coronavirus 2, Calu-3, 24 h
# [7] = test system: SARS-CoV-2 B.1.1.7 (Alpha); assay: microbe, parasite or virus in culture; type: cell-based; conditions: Severe acute respiratory syndrome coronavirus 2, Vero C1008, 24 h
# [8] = test system: SARS-CoV-2 B.1.617.2 (Delta); assay: microbe, parasite or virus in culture; type: cell-based; conditions: Severe acute respiratory syndrome coronavirus 2, Calu-3, 24 h
# [9] = test system: SARS-CoV-2 B.1.1.7 (Alpha); assay: microbe, parasite or virus in culture; type: cell-based; conditions: Severe acute respiratory syndrome coronavirus 2, Calu-3, 24 h
# [10] = test system: SARS-CoV-2 B.1.351 (Beta); assay: microbe, parasite or virus in culture; type: cell-based; conditions: Severe acute respiratory syndrome coronavirus 2, Vero C1008, 18 h
# SARS-CoV-2 P.1 (Gamma) [11] = assay: microbe, parasite or virus in culture; type: cell-based; conditions: Severe acute respiratory syndrome coronavirus 2, Vero C1008, 24 h
# SARS-CoV-2 P.1 (Gamma) [12] = assay: microbe, parasite or virus in culture; type: cell-based; conditions: Severe acute respiratory syndrome coronavirus 2, Calu-3, 24 h
# [13] = test system: SARS-CoV-2 B.1.351 (Beta); assay: microbe, parasite or virus in culture; type: cell-based; conditions: Severe acute respiratory syndrome coronavirus 2, Calu-3, 48 h
# SARS-CoV-2 WA1 [14] = assay: microbe, parasite or virus in culture; type: cell-based; conditions: Severe acute respiratory syndrome coronavirus 2, Caco-2, 96 h
# [15] = test system: SARS-CoV-2 B.1.427 (Epsilon); assay: microbe, parasite or virus in culture; type: cell-based; conditions: Severe acute respiratory syndrome coronavirus 2, Calu-3, 24 h
# SARS-CoV-2 WA1 [16] = assay: microbe, parasite or virus in culture; type: cell-based; conditions: Severe acute respiratory syndrome coronavirus 2, Calu-3, 72 h
# SARS-CoV-2 [17] = assay: Combinatorial sangivamycin/remdesivir efficacy testing, Calu-3 cells; type: cell-based; conditions: Severe acute respiratory syndrome coronavirus 2, Calu-3; read-out: IC50 (nM), S:R by [Remdesivir]
# [18] = laboratory mouse liver, lung, and kidney microsomes; cited from earlier work
# SARS-CoV-2 P.2 (Zeta) [19] = assay: microbe, parasite or virus in culture; type: cell-based; conditions: Severe acute respiratory syndrome coronavirus 2, Vero C1008, 24 h
# [20] = test system: SARS-CoV-2 B.1.617.2 (Delta); assay: microbe, parasite or virus in culture; type: cell-based; conditions: Severe acute respiratory syndrome coronavirus 2, VeroE6/TMPRSS2, 18 h
# [21] = test system: SARS-CoV-2 B.1.429 (Epsilon); assay: microbe, parasite or virus in culture; type: cell-based; conditions: Severe acute respiratory syndrome coronavirus 2, Vero C1008, 48 h
# SARS-CoV-2 [22] = assay: Combinatorial sangivamycin/remdesivir efficacy testing, Vero E6 cells; type: cell-based; conditions: Severe acute respiratory syndrome coronavirus 2, Vero C1008; read-out: IC50 (nM), S:R by [Remdesivir]
# [23] = 24-hour plasma pharmacokinetics in CD-1 laboratory mice; type: in vivo, mouse; conditions: CD-1 mice, sangivamycin i.p. 60 mg/kg; not in control mice
# Description: We next evaluated the 24-hour pharmacokinetics (PK) of sangivamycin in CD-1 laboratory mouse plasma. Sangivamycin’s plasma concentrations increased following i.p. injection of 60 mg/kg to a peak at 2 hours, then decreased over 6 or 8 hours, and remained virtually unchanged up to 24 hours after dosing. […] Graphing plasma concentration versus time produced an area under the curve to the last time point with values of 632 ± 66.6 h•ng/mL for males and 833 ± 53.9 h•ng/mL for females. […] Our data corroborate historical PK studies in mice with ^3H-labeled sangivamycin performed at the NCI in 1974 ([20]). In these studies, free nucleoside and mono-, di-, and triphosphate forms of sangivamycin were detected in blood, urine, and multiple tissues (e.g., heart, liver, brain, spleen, and kidneys) following i.p. injection of 8 mg/kg. The studies established that sangivamycin was phosphorylated after transportation into cells. In liver, heart, and brain, the predominant form of sangivamycin was sangivamycin 5′-monophosphate (SMP). […] Therefore, we determined the level of SMP in blood in our PK study using a published liquid chromatography–tandem mass spectrometry (LC-MS/MS) method with a lower limit of quantification of 1 ng/mL ([33]). Using this method, we detected SMP in the plasma of dosed mice but not control mice (Supplemental Figure 9B). The apparent levels of SMP increased in blood during the 24 hours of this study. There also was possible presence of a diphosphate metabolite of sangivamycin, but it was detected only in the plasma samples taken 24 hours after dosing.
# [24] = test system: COVID-19 higher risk individuals; design: method as in earlier work; conditions: phase III clinical trial with 1433 patients, FDA advisory committee analysis; cited from earlier work
# [25] = Severe acute respiratory syndrome coronavirus 2, Vero C1008, 48 h
compound,measurement,setting,value
"CCCCc1oc2ccccc2c1C(=O)c1cc(I)c(OCCN(CC)CC)c(I)c1 [Amiodarone, reference compound]",NBD-PE fluorescence (phospholipidosis),A549 cells,induced NBD-PE fluorescence
"N#C[C@@]1(c2ccc3c(N)ncnn23)O[C@H](CO)[C@@H](O)[C@H]1O [GS-441524, reference compound]",IC50 fold higher than the IC50 of sangivamycin,SARS-CoV-2 WA1 [1],27 fold
same,IC50,"SARS-CoV-2 WA1 [1]; Severe acute respiratory syndrome coronavirus 2, Vero C1008",1.42 ± 0.02 µM
"CCC(CC)COC(=O)[C@H](C)N[P@](=O)(OC[C@H]1O[C@@](C#N)(c2ccc3c(N)ncnn23)[C@H](O)[C@@H]1O)Oc1ccccc1 [Remdesivir, remdesivir, reference compound]",IC50,SARS-CoV-2 [2],17.6 nM
same,IC50,[3],1.27 µM
same,IC90,[3],3.28 µM
same,half-lives (free nucleoside and monophosphate forms),[4],about 5 hours
same,IC50,[5],2.8 µM
same,IC90,[5],> 10 µM
same,IC50,SARS-CoV-2 P.2 (Zeta) [6],0.791 µM
same,IC90,SARS-CoV-2 P.2 (Zeta) [6],4.8 µM
same,IC50,[7],1.42 µM
same,IC90,[7],3.68 µM
same,IC50,[8],2.91 µM
same,IC90,[8],> 10 µM
same,IC50,[9],3.18 µM
same,IC90,[9],> 10 µM
same,IC50,[10],2.37 µM
same,IC90,[10],4.03 µM
same,IC50,SARS-CoV-2 P.1 (Gamma) [11],0.702 µM
same,IC90,SARS-CoV-2 P.1 (Gamma) [11],3.68 µM
same,IC50,SARS-CoV-2 P.1 (Gamma) [12],1.71 µM
same,IC90,SARS-CoV-2 P.1 (Gamma) [12],6.27 µM
same,IC50,[13],0.951 µM
same,IC90,[13],2.29 µM
same,IC50,SARS-CoV-2 WA1 [14],0.003 µM
same,IC90,SARS-CoV-2 WA1 [14],0.013 µM
same,IC50,[15],1.5 µM
same,IC90,[15],6.09 µM
same,IC50,SARS-CoV-2 WA1 [16],4.49 µM
same,IC90,SARS-CoV-2 WA1 [16],8.19 µM
same,IC50,SARS-CoV-2 [17],4470 nM
same,time within which remdesivir and its monophosphate are lost,[18],≤ 10 min
same,IC50,SARS-CoV-2 P.2 (Zeta) [19],1.56 µM
same,IC90,SARS-CoV-2 P.2 (Zeta) [19],4.91 µM
same,IC50,[20],5.46 µM
same,IC90,[20],> 10 µM
same,IC50,[21],1.77 µM
same,IC90,[21],2.47 µM
same,IC90,SARS-CoV-2 WA1 [1]; [25],3.53 µM
same,IC50,SARS-CoV-2 WA1 [1]; [25],2.27 µM
same,IC50,SARS-CoV-2 [22],2320 nM
"NC(=O)c1cn(C2OC(COP(=O)(O)O)C(O)C2O)c2ncnc(N)c12 (centres unmarked) [SMP, sangivamycin 5′-monophosphate]",presence in plasma of sangivamycin-dosed mice (LC-MS/MS),[23],detected
CC(C)C(=O)OC[C@H]1O[C@@H](n2ccc(NO)nc2=O)[C@H](O)[C@@H]1O [Molnupiravir],reduction of risk for hospitalization and death,[24],30%
